*1 amine or outer side, *2 acyl side, *3 side chain or, on linkers, in order; H or OH if unused. Where a SMILES comes first, the peptide text is derived from it. Bridges are numbered along the chain shown (N, C = ends). [ ]: non-standard residue; d: D form. The star is where a group is joined. hTyr(3S-OH,4S-OH,3'-OSO3H) = N[C@H](C(=O)O)[C@H](O)[C@@H](O)c1ccc(O)c(OS(=O)(=O)O)c1; Orn(4R-OH,5R-OH) = O=C([C@H](C[C@@H](O)[C@@H](O)N[*:3])N[*:1])[*:2]; Pro(3S-OH,4S-Me) = C[C@H]1CN[C@H](C(=O)O)[C@H]1O; X1 = CCCCCOc1ccc(-c2cc(-c3ccc(C(=O)*)cc3)no2)cc1; Gln(3R-OH) = NC(=O)C[C@@H](O)[C@H](N)C(=O)O; Hyp = O=C(O)[C@@H]1C[C@@H](O)CN1

Data set [1] deals with Hepatotoxicity. The data set is described as follows: Literature-mined compound from Fourches et al multi-species drug-induced liver injury (DILI) dataset, effect in humans. The following applies: human.
The test system of data set [2] is Hepatotoxicity. The data set is described as follows: Literature-mined compound from Fourches et al multi-species drug-induced liver injury (DILI) dataset, effect in rodents. The following applies: rodentia.
Data set [3] relates to Hepatotoxicity. The data set is described as follows: Literature-mined compound from Fourches et al multi-species drug-induced liver injury (DILI) dataset, effect in non-rodents.

For `C[C@H]1C[C@@H]2[C@H]([C@@H](O)C[C@@]3(C)[C@H]2CC[C@]3(O)C(=O)CO)[C@@]2(C)C=CC(=O)C=C12` [METHYLPREDNISOLONE], the Hepatotoxicity entry in the data set with Hepatotoxicity [1] is on record as “drug-induced liver injury reported”; in the data set on Hepatotoxicity [2], “drug-induced liver injury reported”; with Hepatotoxicity [3], “no drug-induced liver injury reported”.
As to `CCC1(CC)C(=O)NCC(C)C1=O` (stereo unspecified) [METHYPRYLON], the Hepatotoxicity result in the data set on Hepatotoxicity [1] is given as “no drug-induced liver injury reported”; in the data set with Hepatotoxicity [2] it was “drug-induced liver injury reported”; with Hepatotoxicity [3], “no drug-induced liver injury reported”.
On to `CCN(CC)CCNC(=O)c1cc(Cl)c(N)cc1OC` [METOCLOPRAMIDE], for which the Hepatotoxicity entry is recorded as “drug-induced liver injury reported” in the data set on Hepatotoxicity [1], “drug-induced liver injury reported” in the data set on Hepatotoxicity [2] and “no drug-induced liver injury reported” with Hepatotoxicity [3].
Regarding `COCCc1ccc(OCC(O)CNC(C)C)cc1` (stereo unspecified) [METOPROLOL], the Hepatotoxicity entry in the data set with Hepatotoxicity [1] is “drug-induced liver injury reported”; with Hepatotoxicity [2], “drug-induced liver injury reported”; in the data set with Hepatotoxicity [3], “no drug-induced liver injury reported”.
Consider `Cc1ncc([N+](=O)[O-])n1CCO` [METRONIDAZOLE], for which the figures for the Hepatotoxicity entry with Hepatotoxicity [1], in the data set with Hepatotoxicity [2] and in the data set with Hepatotoxicity [3] were “drug-induced liver injury reported”, “drug-induced liver injury reported” and “no drug-induced liver injury reported”, respectively.
As for `CC(C)(C(=O)c1cccnc1)c1cccnc1` [METYRAPONE], the Hepatotoxicity result in the data set on Hepatotoxicity [1] (Liver) is listed as “drug-induced liver injury reported”; in the data set with Hepatotoxicity [2] (Liver), “drug-induced liver injury reported”; in the data set with Hepatotoxicity [3] (Liver) it was “no drug-induced liver injury reported”.
Regarding `CN1CCN2c3ccccc3Cc3ccccc3C2C1` (stereo unspecified) [MIANSERIN], the Hepatotoxicity result with Hepatotoxicity [1] is recorded as “drug-induced liver injury reported”; in the data set with Hepatotoxicity [2] it was “drug-induced liver injury reported”; with Hepatotoxicity [3] it was “no drug-induced liver injury reported”.
With `CCCCCOc1ccc(-c2cc(-c3ccc(C(=O)N[C@H]4C[C@@H](O)[C@@H](O)NC(=O)[C@@H]5[C@@H](O)[C@@H](C)CN5C(=O)[C@H]([C@H](O)CC(N)=O)NC(=O)[C@H]([C@H](O)[C@@H](O)c5ccc(O)c(OS(=O)(=O)O)c5)NC(=O)[C@@H]5C[C@@H](O)CN5C(=O)[C@H]([C@@H](C)O)NC4=O)cc3)no2)cc1` [MICAFUNGIN] (X1-[Orn(4R-OH,5R-OH)]T[Hyp][hTyr(3S-OH,4S-OH,3'-OSO3H)][Gln(3R-OH)][Pro(3S-OH,4S-Me)]; lactam 1-C), the Hepatotoxicity entry is “drug-induced liver injury reported” in the data set on Hepatotoxicity [1], “no drug-induced liver injury reported” in the data set with Hepatotoxicity [2] and “no drug-induced liver injury reported” in the data set on Hepatotoxicity [3].
For the compound `Clc1ccc(COC(Cn2ccnc2)c2ccc(Cl)cc2Cl)c(Cl)c1` (stereo unspecified) [MICONAZOLE], the Hepatotoxicity result in the data set with Hepatotoxicity [1] is recorded as “drug-induced liver injury reported”; in the data set with Hepatotoxicity [2], “drug-induced liver injury reported”; in the data set on Hepatotoxicity [3] it was “no drug-induced liver injury reported”.
For `Cc1ncc2n1-c1ccc(Cl)cc1C(c1ccccc1F)=NC2` [MIDAZOLAM], the Hepatotoxicity entry in the data set on Hepatotoxicity [1] is reported as “no drug-induced liver injury reported”; in the data set on Hepatotoxicity [2] it was “drug-induced liver injury reported”; with Hepatotoxicity [3] it was “no drug-induced liver injury reported”.
`CC#C[C@]1(O)CC[C@H]2[C@@H]3CCC4=CC(=O)CCC4=C3[C@@H](c3ccc(N(C)C)cc3)C[C@@]21C` [MIFEPRISTONE]: the Hepatotoxicity result in the data set on Hepatotoxicity [1] is recorded as “no drug-induced liver injury reported”; with Hepatotoxicity [2] it was “drug-induced liver injury reported”; in the data set on Hepatotoxicity [3], “no drug-induced liver injury reported”.
Consider `CCCCCCCCCCCCCCCCOP(=O)([O-])OCC[N+](C)(C)C` [MILTEFOSINE], for which the Hepatotoxicity entry with Hepatotoxicity [1] is given as “drug-induced liver injury reported”; in the data set on Hepatotoxicity [2], “no drug-induced liver injury reported”; in the data set on Hepatotoxicity [3], “no drug-induced liver injury reported”.
Take `CN(C)c1ccc(O)c2c1C[C@H]1C[C@H]3[C@H](N(C)C)C(O)=C(C(N)=O)C(=O)[C@@]3(O)C(O)=C1C2=O` [MINOCYCLINE]: the Hepatotoxicity result was “drug-induced liver injury reported” with Hepatotoxicity [1], “drug-induced liver injury reported” in the data set with Hepatotoxicity [2] and “no drug-induced liver injury reported” in the data set with Hepatotoxicity [3].
As for `Nc1cc(N2CCCCC2)nc(N)[n+]1[O-]` [MINOXIDIL], the Hepatotoxicity entry in the data set on Hepatotoxicity [1] is on record as “drug-induced liver injury reported”; in the data set on Hepatotoxicity [2] it was “drug-induced liver injury reported”; in the data set with Hepatotoxicity [3], “no drug-induced liver injury reported”.
Take `CN1CCN2c3ncccc3Cc3ccccc3C2C1` (stereo unspecified) [MIRTAZAPINE]: the Hepatotoxicity entry in the data set with Hepatotoxicity [1] is recorded as “drug-induced liver injury reported”; with Hepatotoxicity [2], “no drug-induced liver injury reported”; with Hepatotoxicity [3], “no drug-induced liver injury reported”.
As to `CCCCC(C)(O)C/C=C/[C@H]1[C@H](O)CC(=O)[C@@H]1CCCCCCC(=O)OC` (stereo partly specified) [MISOPROSTOL], the Hepatotoxicity result is on record as “no drug-induced liver injury reported” in the data set with Hepatotoxicity [1], “drug-induced liver injury reported” in the data set with Hepatotoxicity [2] and “drug-induced liver injury reported” in the data set with Hepatotoxicity [3].
Turning to `O=C(O)[C@H](CC(=O)N1C[C@H]2CCCC[C@H]2C1)Cc1ccccc1` [MITIGLINIDE], the Hepatotoxicity result with Hepatotoxicity [1] is given as “no drug-induced liver injury reported”; in the data set on Hepatotoxicity [2] it was “drug-induced liver injury reported”; in the data set with Hepatotoxicity [3], “no drug-induced liver injury reported”.
Consider `Clc1ccc(C(c2ccccc2Cl)C(Cl)Cl)cc1` (stereo unspecified) [MITOTANE], for which the Hepatotoxicity result in the data set with Hepatotoxicity [1] was “drug-induced liver injury reported”; in the data set with Hepatotoxicity [2] it was “no drug-induced liver injury reported”; in the data set with Hepatotoxicity [3], “drug-induced liver injury reported”.
Turning to `O=C1c2c(O)ccc(O)c2C(=O)c2c(NCCNCCO)ccc(NCCNCCO)c21` [MITOXANTRONE], the Hepatotoxicity entry in the data set with Hepatotoxicity [1] was “drug-induced liver injury reported”; in the data set on Hepatotoxicity [2], “drug-induced liver injury reported”; with Hepatotoxicity [3] it was “no drug-induced liver injury reported”.
In the case of `CN(c1nccc(=O)[nH]1)C1CCN(c2nc3ccccc3n2Cc2ccc(F)cc2)CC1` [MIZOLASTINE], the Hepatotoxicity result was “drug-induced liver injury reported” in the data set with Hepatotoxicity [1], “no drug-induced liver injury reported” with Hepatotoxicity [2] and “no drug-induced liver injury reported” in the data set on Hepatotoxicity [3].
As to `NC(=O)C[S+]([O-])C(c1ccccc1)c1ccccc1` (stereo unspecified) [MODAFINIL], the Hepatotoxicity entry with Hepatotoxicity [1] is “drug-induced liver injury reported”; in the data set with Hepatotoxicity [2], “no drug-induced liver injury reported”; in the data set on Hepatotoxicity [3], “no drug-induced liver injury reported”.
As to `CCOC(=O)[N-]c1cn(N2CCOCC2)n[o+]1` [MOLSIDOMINE], the Hepatotoxicity entry with Hepatotoxicity [1] was “drug-induced liver injury reported”; with Hepatotoxicity [2] it was “drug-induced liver injury reported”; in the data set on Hepatotoxicity [3], “no drug-induced liver injury reported”.

(Values after ChEMBL document CHEMBL1697731, “Cheminformatics analysis of assertions mined from literature that describe drug-induced liver injury in different species” (Chem Res Toxicol, 2010).)
